Assay results as given in US8399481B2, “Compounds” (Xention Ltd, priority 2009, dated 2013).
No end group written: not given here.

Tests used:
hKv1.3 = hKv1.3 (Homo sapiens, UniProt P22001); test: hKv1.3 % inhibition at 1 uM (Table 1); format: cell-based; settings: for inhibition at 1 µM: read-out: hKv1.3 % inh. 1 uM
hKv1.5 = hKv1.5 (Homo sapiens, UniProt P22460); test: hKv1.5 % inhibition at 300 nM (Table 1); format: cell-based; settings: for inhibition at 0.3 µM: read-out: hKv1.5 % inh. 300 nM
Sequence of hKv1.5 (P22460 whole entry): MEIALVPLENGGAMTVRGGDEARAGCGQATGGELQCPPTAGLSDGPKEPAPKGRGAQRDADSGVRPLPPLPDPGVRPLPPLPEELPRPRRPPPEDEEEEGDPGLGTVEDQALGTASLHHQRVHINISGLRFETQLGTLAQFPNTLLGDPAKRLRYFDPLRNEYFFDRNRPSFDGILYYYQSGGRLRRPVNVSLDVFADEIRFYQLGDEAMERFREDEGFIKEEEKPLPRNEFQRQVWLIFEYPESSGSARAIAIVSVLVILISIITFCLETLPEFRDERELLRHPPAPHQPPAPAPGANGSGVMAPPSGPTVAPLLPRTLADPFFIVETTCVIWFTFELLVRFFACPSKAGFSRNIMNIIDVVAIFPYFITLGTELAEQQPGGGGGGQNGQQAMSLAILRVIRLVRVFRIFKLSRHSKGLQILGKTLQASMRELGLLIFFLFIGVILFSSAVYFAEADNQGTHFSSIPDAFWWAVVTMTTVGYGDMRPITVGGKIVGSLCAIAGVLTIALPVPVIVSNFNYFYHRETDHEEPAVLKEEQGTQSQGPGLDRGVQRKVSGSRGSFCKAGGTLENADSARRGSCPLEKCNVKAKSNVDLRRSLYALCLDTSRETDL

[1] = tested on: delayed-type hypersensitivity (DTH) response; settings: DTH model in vivo; cited from earlier work

Sequence of hKv1.3 (P22001 whole entry): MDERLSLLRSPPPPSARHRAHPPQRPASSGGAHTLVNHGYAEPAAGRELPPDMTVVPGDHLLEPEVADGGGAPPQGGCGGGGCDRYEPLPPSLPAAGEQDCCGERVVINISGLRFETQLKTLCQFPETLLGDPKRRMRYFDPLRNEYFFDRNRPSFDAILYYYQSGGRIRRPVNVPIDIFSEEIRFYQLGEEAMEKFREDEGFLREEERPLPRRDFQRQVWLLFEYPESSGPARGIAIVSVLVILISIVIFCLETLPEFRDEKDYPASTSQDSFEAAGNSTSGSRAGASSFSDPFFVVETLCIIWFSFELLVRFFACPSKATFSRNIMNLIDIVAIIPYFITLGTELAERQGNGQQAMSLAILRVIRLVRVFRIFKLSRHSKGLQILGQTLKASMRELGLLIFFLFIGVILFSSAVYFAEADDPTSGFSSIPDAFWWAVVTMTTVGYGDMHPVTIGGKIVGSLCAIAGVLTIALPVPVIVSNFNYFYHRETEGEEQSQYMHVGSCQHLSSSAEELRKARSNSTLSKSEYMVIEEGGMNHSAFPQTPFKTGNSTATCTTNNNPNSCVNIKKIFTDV

Compound | hKv1.3 % inh. 1 uM (hKv1.3) [%] | hKv1.5 % inh. 300 nM (hKv1.5) [%] | suppression of DTH response [1] | inhibition at 1 µM (hKv1.3) [%] | inhibition at 0.3 µM (hKv1.5) [%]
1-Methyl-1H-imidazole-4-sulfonic acid (4-chloro-benzyl)-(2-ethyl-1-oxo-2,3-dihydro-1H-isoindol-4-yl)-amide [Example 21] | 69.8 | 23.8 | – | – | –
C=C1C[C@@]2(O)[C@@H]3CC[C@@]4(C)[C@@H]5C=CC(=O)OC[C@]5(C(C)OC(C)=O)[C@@H](OC(C)=O)[C@@H](OC(C)=O)[C@@H]4[C@@]3(C)[C@H](OC(C)=O)[C@H](OC(C)=O)[C@@]2(C)C2(C(=O)OC)O[C@H]12 (stereo partly shown) [Correolide] | – | – | effective | – | –
CCN1CCc2ccc(N(Cc3ccc(Cl)cc3)S(=O)(=O)c3ccn(C)n3)cc2C1=O [Example 1, 1-Methyl-1H-pyrazole-3-sulfonic acid (4-chloro-benzyl)-(2-ethyl-1-oxo-1,2,3,4-tetrahydro-isoquinolin-7-yl)-amide] | – | – | – | 99.6 | 82.4
CCN1Cc2ccc(N(Cc3ccc(Cl)cc3)S(=O)(=O)c3cccnc3)cc2C1=O [Example 2, Pyridine-3-sulfonic acid (40chloro-benzyl)-(2-ethyl-3-oxo-2,3-dihydro-1H-isoindol-5-yl)-amide] | 97.2 | 65.0 | – | – | –
CCN1Cc2ccc(N(Cc3ccc(Cl)cc3)S(=O)(=O)c3ccn(C)n3)cc2C1=O [Example 4, 1-Methyl-1H-pyrazole-3-sulfonic acid (4-chloro-benzyl)-(2-ethyl-3-oxo-2,3-dihydro-1H-isoindol-5-yl)-amide] | – | – | – | 96.6 | 63.8
O=C1c2cc(N(Cc3ccc(Cl)cc3)S(=O)(=O)c3cccnc3)ccc2CCN1CCO [Example 5, Pyridine-3-sulfonic acid (4-chloro-benzyl)-[2-(2-hydroxy-ethyl)-1-oxo-1,2,3,4-tetrahydro-isoquinolin-7-yl]-amide] | – | – | – | 96.4 | 76
CCN1CC(C)(C)c2ccc(N(Cc3ccc(Cl)cc3)S(=O)(=O)c3cn(C)cn3)cc2C1=O [Example 6, 1-Methyl-1H-imidazole-4-sulfonic acid (4-chloro-benzyl)-(2-ethyl-4,4-dimethyl-1-oxo-1,2,3,4-tetrahydro-isoquinolin-7-yl)-amide] | – | – | – | 96.1 | 70.1
Cn1ccc(S(=O)(=O)N(Cc2ccc(Cl)cc2)c2ccc3c(c2)C(=O)NCC3)n1 [Example 7, 1-Methyl-1H-pyrazole-3-sulfonic acid (4-chloro-benzyl)-(1-oxo-1,2,3,4-tetrahydro-isoquinolin-7-yl)-amide] | – | – | – | 95.5 | 42.6
N#Cc1cccc(S(=O)(=O)N(Cc2ccc(Cl)cc2)c2ccc3c(c2)C(=O)NCC3)c1 [Example 8, N-(4-Chloro-benzyl)-3-cyano-N-(1-oxo-1,2,3,4-tetrahydro-isoquinolin-7-yl)-benzenesulfonamide] | – | – | – | 94.6 | 91.2
CN1CCc2ccc(N(Cc3ccc(Cl)cc3)S(=O)(=O)c3ccn(C)n3)cc2C1=O [Example 9, 1-Methyl-1H-pyrazole-3-sulfonic acid (4-chloro-benzyl)-(2-methyl-1-oxo-1,2,3,4-tetrahydro-isoquinolin-7-yl)-amide] | – | – | – | 94.5 | 76.4
Cn1ccc(S(=O)(=O)N(Cc2ccc(Cl)cc2)c2ccc3c(c2)C(=O)N(CCO)CC3)n1 [Example 10, 1-Methyl-1H-pyrazole-3-sulfonic acid (4-chloro-benzyl)-[2-(2-hydroxy-ethyl)-1-oxo-1,2,3,4-tetrahydro-isoquinolin-7-yl]-amide] | – | – | – | 94.2 | 47.1
CCN1Cc2ccc(N(Cc3ccc(Cl)cc3)S(=O)(=O)c3cccc(C#N)c3)cc2C1=O [Example 11, N-(4-Chloro-benzyl)-3-cyano-n-(2-ethyl-3-oxo-2,3-dihydro-1H-isoindol-5-yl)-benzene sulfonamide] | 93.8 | 86.9 | – | – | –
CCN1Cc2cc(N(Cc3ccc(Cl)cc3)S(=O)(=O)c3cccc(C#N)c3)ccc2C1=O [Example 12, N-(4-Chloro-benzyl)-3-cyano-N-(2-ethyl-1-oxo-2,3-dihydro-1H-isoindol-5-yl) benzene sulfonamide] | 93.0 | 63.2 | – | – | –
O=C1NCCc2ccc(N(Cc3ccc(Cl)cc3)S(=O)(=O)c3cccnc3)cc21 [Example 13, Pyridine-3-sulfonic acid (4-chloro-benzyl)-(1-oxo-1,2,3,4-tetrahydro-isoquinolin-7-yl)-amide] | – | – | – | 90.5 | 36
CCN1Cc2ccc(N(Cc3ccc(Cl)cc3)S(=O)(=O)c3cn(C)cn3)cc2C1=O [Example 14, 1-Methyl-1H-imidazole-4-sulfonic acid (4-chloro-benzyl)-(2-ethyl-3-oxo-2,3-dihydro-1H-isoindol-5-yl)-amide] | – | – | – | 89.7 | 27.1
CC1(C)CNC(=O)c2cc(N(Cc3ccc(Cl)cc3)S(=O)(=O)c3cccnc3)ccc21 [Example 15] | 88.9 | 70.0 | – | – | –
Cn1ccc(S(=O)(=O)N(Cc2ccc(Cl)cc2)c2ccc3c(c2)C(=O)NCC3(C)C)n1 [Example 16, 1-Methyl-1H-pyrazole-3-sulfonic acid (4-chloro-benzyl)-(4,4-dimethyl-1-oxo-1,2,3,4-tetrahydro-isoquinolin-7-yl)-amide] | – | – | – | 88.3 | 64.2
CC(C)N1C(=O)c2ccc(N(Cc3ccc(Cl)cc3)S(=O)(=O)c3cn(C)cn3)cc2C1=O [Example 17, 1-Methyl-1H-imidazole-4-sulfonic acid (4-chloro-benzyl)-(2-isopropyl-1,3-dioxo-2,3-dihydro-1-H-isoindol-5-yl)-amide] | 79.7 | 58.0 | – | – | –
CCN1Cc2cc(N(Cc3ccc(Cl)cc3)S(=O)(=O)c3ccn(C)n3)ccc2C1=O [Example 18, 1-Methyl-1H-pyrazole-3-sulfonic acid (4-chloro-benzyl)-(2-ethyl-1-oxo-2,3-dihydro-1H-isoindol-5-yl)-amide] | – | – | – | 75.2 | 77.3
CCN1CCc2cc(N(Cc3ccccc3)S(=O)(=O)c3ccn(C)n3)ccc2C1=O [Example 19, 1-Methyl-1H-pyrazole-3-sulfonic acid benzyl (2-ethyl-1-oxo-1,2,3,4-tetrahydro-isoquinolin-6-yl)-amide] | 74.3 | 25.4 | – | – | –
Cn1cnc(S(=O)(=O)N(Cc2ccc(Cl)cc2)c2ccc3c(c2)C(=O)NCC3(C)C)c1 [Example 20, 1-Methyl-1H-imidazole-4-sulfonic acid (4-chloro-benzyl)-(4,4-dimethyl-1-oxo-1,2,3,4-tetrahydro-isoquinolin-7-yl)-amide] | – | – | – | 72.6 | 34.1
CCN1Cc2cc(N(Cc3ccc(Cl)cc3)S(=O)(=O)c3cn(C)cn3)ccc2C1=O [Example 22, 1-Methyl-1H-imidazole-4-sulfonic acid (4-chloro-benzyl)-(2-ethyl-1-oxo-2,3-dihydro-1H-isoindol-5-yl)-amide] | – | – | – | 67.9 | 30.6
CCN1CCc2cc(N(Cc3ccccc3)S(=O)(=O)c3cn(C)cn3)ccc2C1=O [Example 23, 1-Methyl-1H-imidazole-4-sulfonic acid benzyl-(2-ethyl-1-oxo-1,2,3,4-tetrahydro-isoquinolin-6-yl)-amide] | – | – | – | 58 | 26.5
O=c1ccc2c(OCCCCOc3ccccc3)c3ccoc3cc2o1 [PAP-1] | – | – | effective | – | –
N-(4-Chloro-benzyl)-3-cyano-N-(1-oxo-1,2,3,4-tetrahydro-isoquinolin-7-yl)-benzenesulfonamide [Example 3] | 97.2 | 87.8 | – | – | –
margatoxin (TIINVKCTSPKQCLPPCKAQFGQSAGAKCMNGKCKCYPH; ends and bridges not checked; cysteine pairing not given here; UniProt P40755 1-39, looked up) [MgTX] | – | – | effectively suppressed | – | –
